{"source": "patent US8785459B2", "about": "“Quinazoline compounds as kinase inhibitors” (Development Center for Biotechnology, priority 2011, dated 2014)", "key": {"A375 tumor cells": {"test_system": "A375 tumor cells", "assay": "In vivo anti-cancer activity, subcutaneous A375 tumor in NOD/SCID mice", "details": "A375 xenograft, 50 mg/kg i.p. qd x 28", "method": "(§1) In Vivo Anti-Cancer Activities\n(§2) A375 (1×10^6 cell/mouse) tumor cells were subcutaneously injected into the right flank of 5 week old male NOD/SCID mice (BioLASCO, Taiwan). Tumor volume was measured with a digital caliper once tumor was palpable (within 10 to 15 days after implantation). Compound treatment was started after 1-3 weeks when the tumors had reached an average volume of ˜50 to 100 mm^3. Mice were divided into 5 groups as listed in Table 6 below and were given intraperitoneal injections with the test compound at 50 mg/kg, or vehicle control (DMSO:Cremophor:PBS (pH 7.4)=[…]) one time every day. The test compound, 58, was formulated in a solution of 5% DMSO, 10% Cremophor, and 85% PBS. The positive control, PLX4032, was dissolved in 100% PBS. Body weights of the mice were measured every two to three days and the tumor sizes in different groups of mice were measured by digital caliper every two to three days."}, "[1]": {"assay": "Body weight of A375 tumor-bearing NOD/SCID mice under treatment", "assay_type": "in vivo", "details": "A375 xenograft, 50 mg/kg i.p. qd x 28", "method": "as §1, §2"}}}
{"smiles": "COc1cc(-c2ccc3ncnc(Nc4cc(O)ccc4F)c3c2)ccc1O", "note": "[Compound 58, 4-(4-(2-fluoro-5-hydroxyphenylamino)quinazolin-6-yl)-2-methoxyphenol]", "values": [{"measurement": "tumor growth in vivo", "setting": "A375 tumor cells", "value": "inhibited tumor growth in vivo"}, {"measurement": "weight loss", "setting": "[1]", "value": "without inducing significant weight loss"}]}
